pKi: −log10 of the molar value.
Test: Inhibition of homogeneous KDO 8-P synthase of Escherichia coli was determined from Dixon Plot

SMILES: O=C(O)C1(OP(=O)(O)O)CC(O)C(O)C([C@H](O)COP(=O)(O)O)O1 (stereo partly specified)
- pKi: 5.31

Source: ChEMBL document CHEMBL1126527, “Insight into the catalytic mechanism of KDO8P synthase. Synthesis and evaluation of the isosteric phosphonate mimic of the putative cyclic intermediate” (Bioorg Med Chem Lett, 1993)
